# Source: publication PMC6005845 (Frontiers in Cardiovascular Medicine, 2018)
# Columns and labels:
# APOE*3Leiden.CETP mice [1] = assay: Histological assessment of atherosclerosis (lesion area, number, severity) in the aortic root; assay type: in vivo; conditions: 16 weeks
# Experimental: Significance of differences between the groups was calculated in SPSS 22.0 for Windows. Normally distributed data was tested parametrically using a one-way ANOVA for multiple comparisons with a Dunnett’s post-hoc test. Non-parametric data were compared separately with a Mann-Whitney U test with adjusted rejection criteria using a Bonferroni-Holm correction. Correlations between lesion size (after square root transformation) and cholesterol exposure were calculated with a Pearson’s correlation test. All groups were compared with the control group. Values are presented as means ± SD and p-values < 0.05 were considered statistically significant.
# Pouwer et al Supplementary material
# Dickinson, Franklin Lakes, New Jersey, USA). […]
# Histological assessment of lung morphology and atherosclerosis […]
# The caudal lung was cross […]
# direction of the aortic arch. […]
# valve leaflets and smooth muscle cells instead of collagen-rich tissue, serial cross sections (5 µm thick with intervals of 50 µm) were taken and mounted on AAS-coated slides. These sections were stained with hematoxylin-phloxine-saffron (HPS) for histological analysis. For each mouse, atherosclerosis was measured in 4 subsequent cross sections. Each section consisted of 3 segments. The average total lesion area per cross section was then calculated20
# (§1) 22. For determination of lesion severity the lesions were classified into five categories according to the American Heart Association classification 23: 0) no lesion I) early fatty streak, II) regular fatty streak, III) mild plaque, IV) moderate plaque, and V) severe plaque. The percentage of each lesion type was calculated, where type I-III lesions were classified as mild lesions and type IV-V lesions were classified as severe lesions 20 22. In the aortic root, lesion composition was determined for the severe lesions (type IV -V) as a percentage of lesion area after immunostaining with anti-human alpha-actin (1:400; PROGEN Biotechnik GmbH, Germany) for smooth muscle cells (SMC), and anti -mouse Mac-3 (1:50; BD Pharmingen, the Netherlands) for macrophages followed by Sirius Red staining. After Sirius Red staining for collagen, color intensity was determined in ImageJ and the used threshold was confirmed by evaluation of the sections under polarized light 24. Necrotic area and cholesterol clefts were measured after HPS staining13 20 22. Lesion stability index was calculated as described pre viously13 20. In each segment used for lesion quantification, the number of monocytes adhering to the endothelium were counted after immunostaining with AIA 31240 antibody (1:1000; Accurate Chemical and Scientific, New York, New York, USA) 14 20. […]
# APOE*3Leiden.CETP mice [2] = assay: Plasma cholesterol, triglycerides and HDL-C in the atherosclerosis study; assay type: in vivo; conditions: for reduction of average plasma cholesterol compared to control: p < 0.001; for change of HDL-C vs control: at 16 weeks of treatment
# Experimental: Pouwer et al Supplementary material plasma lipids and a minimal effect of treatment of 30%, resulting in 15 animals per group.
# Animal experiments were approved by the Institutional Animal Care and Use Committee of The Netherlands Organization for Applied Research under registration number 3557. […]
# Biochemical analyses and blood pressure
# EDTA plasma samples were collected throughout the study. Plasma cholesterol and triglycerides were determined every 4 weeks using enzymatic kits (Roche/Hitachi) according […]
# HDL-C was measured after precipitation as described previously20. The distribution of […]
# protein liquid chromatography (FPLC)9. The inflammatory markers SAA, E-selectin and MCP- […]
# according to the manufacturer’s instruction. Plasma ALT and AST were determined using a […]
# group at 2 and 15 weeks18. […]
# APOE*3Leiden.CETP mice [3] = assay: Plaque composition and lesion stability index in severe (type IV-V) lesions; assay type: in vivo; conditions: 16 weeks
# Experimental: The macrophage and necrosis content were quantified as factors that decrease plaque stability, and smooth muscle cell area in the cap of the lesions and collagen as factors that improve plaque stability ([17, 35, 36]) (Figure 6A). […]
# µm thick with intervals of 50 µm) were taken and mounted on AAS-coated slides. These sections were stained with hematoxylin-phloxine-saffron (HPS) for histological analysis. For each mouse, atherosclerosis was measured in 4 subsequent cross sections. Each section consisted of 3 segments. The average total lesion area per cross section was then calculated20
# as §1, with “20.” for “20. In each segment used for lesion quantification, the number of monocytes adhering to the endothelium were counted after immunostaining with AIA 31240 antibody (1:1000; Accurate Chemical and Scientific, New York, New York, USA) 14 20.”
# SAA = assay: Plasma SAA ELISA; assay type: in vivo, APOE*3Leiden.CETP mice; conditions: for SAA: after 16 weeks of treatment
# Excerpt: (§2) Pouwer et al Supplementary material […]
# (§3) The inflammatory markers SAA, E-selectin and MCP-
# (§4) according to the manufacturer’s instruction. […]
# MCP-1 = assay: Plasma MCP-1 ELISA; assay type: in vivo, APOE*3Leiden.CETP mice; conditions: for MCP-1: after 16 weeks of treatment; for change of MCP-1 relative to baseline (T = 0 weeks): p < 0.001
# Excerpt: as §2, §3, §4
# ALT = assay: Plasma ALT (pooled samples); conditions: after 16 weeks
# AST = assay: Plasma AST (pooled samples); conditions: after 16 weeks
# liver = assay: Liver gene expression analysis (RNA sequencing) and pathway analysis; assay type: in vivo, APOE*3Leiden.CETP mice; conditions: vs control, Figure 7: imatinib 150, nilotinib 30, ponatinib 10 mg/kg
# Experimental: To find early molecular signatures of other clinically relevant processes induced by the anti-CML drugs, gene expression and pathway analysis was performed in the liver as the central organ in lipid metabolism and synthesis of coagulation factors. To identify drug-specific molecular responses and overlap between the various treatments, the total number of differentially expressed genes (DEG) was assessed and a Venn-diagram was constructed comprising all DEG compared to control group. […]
# Messenger RNA was isolated from liver of 8 mice per group, using the NEBNext Ultra RNA
# sample Prep Kit. After fragmentation of the mRNA, cDNA synthesis was performed. The
smiles,measurement,setting,value
"Cc1ccc(NC(=O)c2ccc(CN3CCN(C)CC3)cc2)cc1Nc1nccc(-c2cccnc2)n1 [Imatinib, imatinib]",change of total lesion area that consisted of severe (type IV–V) lesions vs control,"APOE*3Leiden.CETP mice [1]; 150 mg/kg BID, p < 0.001",−56%
same,reduction of atherosclerotic lesion area per cross-section vs control,"APOE*3Leiden.CETP mice [1]; 150 mg/kg BID, p < 0.001",78%
same,reduction of average plasma cholesterol compared to control,"APOE*3Leiden.CETP mice [2]; 150 mg/kg BID, 16 week study",69%
same,reduction of average plasma triglyceride levels compared to control,"APOE*3Leiden.CETP mice [2]; 150 mg/kg BID, 16 week study, p = 0.019",36%
same,increase of collagen content of severe lesions vs control,"APOE*3Leiden.CETP mice [3]; 150 mg/kg BID, p = 0.004",47%
same,change of αSMC content vs control,"APOE*3Leiden.CETP mice [3]; 150 mg/kg BID, p = 0.050 (tended to increase)",+38%
same,collagen content (percentage of total plaque area),"APOE*3Leiden.CETP mice [3]; 150 mg/kg BID, type IV-V lesions",62 ± 17%
same,effect on plasma SAA,"SAA; 150 mg/kg BID, 16 weeks",None of the inflammatory markers were significantly altered
same,SAA,SAA; 150 mg/kg BID,9.6 ± 0.5 µg/mL
same,effect on plasma MCP-1,"MCP-1; 150 mg/kg BID, 16 weeks",None of the inflammatory markers were significantly altered
same,MCP-1,MCP-1; 150 mg/kg BID,54 ± 44 pg/mL
same,ALT,ALT; 150 mg/kg BID,31 U/L
same,AST,AST; 150 mg/kg BID,147 U/L
same,gene expression of Protein C,liver,up-regulated
same,gene expression of Protein S,liver,down-regulated
same,gene expression of Serpina1 (PAI-1),liver,up-regulated
same,gene expression of Tpa,liver,down-regulated
same,gene expression of Upa,liver,down-regulated
"Cc1cn(-c2cc(NC(=O)c3ccc(C)c(Nc4nccc(-c5cccnc5)n4)c3)cc(C(F)(F)F)c2)cn1 [Nilotinib, nilotinib]",effect on atherosclerotic lesion area,APOE*3Leiden.CETP mice [1]; 10 and 30 mg/kg QD,not affected
same,effect on plasma lipid levels,"APOE*3Leiden.CETP mice [2]; 10 and 30 mg/kg QD, 16 week study, vs control",no significant effect
same,change of collagen content vs control,"APOE*3Leiden.CETP mice [3]; 10 mg/kg, p = 0.003",−32%
same,change of lesion stability index vs control,"APOE*3Leiden.CETP mice [3]; 10 mg/kg, p = 0.003",−43%
same,SAA,SAA; 10 mg/kg QD,10.6 ± 1.0 µg/mL
same,SAA,SAA; 30 mg/kg QD,10.6 ± 1.1 µg/mL
same,change of MCP-1 relative to baseline (T = 0 weeks),"MCP-1; 10 mg/kg QD, 16 weeks",+220%
same,MCP-1,MCP-1; 10 mg/kg QD,144 ± 82 pg/mL
same,change of MCP-1 relative to baseline (T = 0 weeks),"MCP-1; 30 mg/kg QD, 16 weeks",+160%
same,MCP-1,MCP-1; 30 mg/kg QD,117 ± 60 pg/mL
same,ALT,ALT; 10 mg/kg,64 U/L
same,ALT,ALT; 30 mg/kg,81 U/L
same,AST,AST; 10 mg/kg,210 U/L
same,AST,AST; 30 mg/kg,221 U/L
same,gene expression of F5,liver,down-regulation
same,gene expression of F9,liver,down-regulation
same,gene expression of Protein S,liver,down-regulation
same,gene expression of Serpina1 (PAI-1),liver,up-regulated
"Cc1ccc(C(=O)Nc2ccc(CN3CCN(C)CC3)c(C(F)(F)F)c2)cc1C#Cc1cnc2cccnn12 [Ponatinib, ponatinib]",reduction of atherosclerotic lesion area per cross-section vs control,"APOE*3Leiden.CETP mice [1]; 3 mg/kg QD, p = 0.002",52%
same,"change of lesion severity, mild lesions (type I-III)","APOE*3Leiden.CETP mice [1]; 10 mg/kg QD, p < 0.01 (Figure 4B)",+64%
same,reduction of atherosclerotic lesion area per cross-section vs control,"APOE*3Leiden.CETP mice [1]; 10 mg/kg QD, p = 0.006",48%
same,change of HDL-C vs control,"APOE*3Leiden.CETP mice [2]; 3 mg/kg QD (low dose), p = 0.003",−30%
same,reduction of average plasma cholesterol compared to control,"APOE*3Leiden.CETP mice [2]; 3 mg/kg QD, 16 week study",37%
same,change of HDL-C vs control,"APOE*3Leiden.CETP mice [2]; 10 mg/kg QD (high dose), p = 0.016",−25%
same,reduction of average plasma cholesterol compared to control,"APOE*3Leiden.CETP mice [2]; 10 mg/kg QD, 16 week study",44%
same,effect on plaque stability,APOE*3Leiden.CETP mice [3]; 3 mg/kg,without affecting plaque stability
same,change of necrotic core content vs control,"APOE*3Leiden.CETP mice [3]; 3 mg/kg, p = 0.001",−58%
same,SAA,SAA; 3 mg/kg QD,10.4 ± 1.9 µg/mL
same,SAA,SAA; 10 mg/kg QD,15.2 ± 21.1 µg/mL
same,MCP-1,MCP-1; 3 mg/kg QD,78 ± 29 pg/mL
same,MCP-1,MCP-1; 10 mg/kg QD,92 ± 68 pg/mL
same,ALT,ALT; 3 mg/kg,44 U/L
same,ALT,ALT; 10 mg/kg,31 U/L
same,AST,AST; 3 mg/kg,196 U/L
same,AST,AST; 10 mg/kg,207 U/L
same,gene expression of F7,liver,increased
same,gene expression of Klkb1,liver,increased
same,gene expression of Kng1a,liver,increased
same,gene expression of Tpa,liver,decreased
same,gene expression of Upa,liver,decreased
